Test results: paper PMC7083880 (Nature Communications, 2020)
Read-outs that look alike come from different tables or passages of the source.

How the values were obtained:
[1] = test system: endogenous TP53 gene with UAG nonsense mutation in Caco-2 cells; assay: p53 protein western blot, Caco-2 cells; type: cell-based, human; conditions: Caco-2 (UAG); 24 h
Protocol: After 24 h of treatment, proteins were extracted from the cells and the p53 protein was assessed by western blotting (Fig. 2a). After DMSO mock treatment, as anticipated, no p53 protein was detected, because of the presence of the PTC in p53 mRNA[33].
The three leftmost lanes show twofold serial dilutions of untreated HeLa cell extract. The molecular weight is indicated to the left of each gel. b Schematic representation of the construct used to measure the function of p53. The construct carries a cDNA encoding the firefly luciferase under a promoter having two p53-responsive elements (underlined). […] The level of p21 mRNA is related to the amount of functional p53 protein synthesized in the cell. The results presented in panels b and c are representative of at least two independent experiments., p-values (p) were calculated using Student’s t-test. Source data are provided as a Source Data file. […]
The equivalent of 2.5 × 10^5 cells was subjected to 10% SDS–PAGE before transfer of the proteins to a nitrocellulose membrane. […] Antibodies were then detected with Super Signal West Femto Maximum Sensitivity Substrate (Pierce-Biotechnology, Rockford, IL, USA). Quantifications were performed with QuantityOne software (Biorad). […]

[2] = test system: Calu-6 cell tumors (TP53 UGA nonsense mutation) in nude mice; type: in vivo; parameters: tumor size, Average: unit not given here
Protocol: (§1) For each experimental condition, 7 mice were used. b Fourteen nude mice were injected with Calu-6 cells to promote tumor development. […] The arrow indicates the starting time of the exposure to DMSO or DAP. For each experimental condition, 7 mice were used. […] GAPDH was used as loading control. A molecular weight marker is indicated to the left of the gel. The results presented in this figure are representative of two independent experiments. p-values (p) were calculated using Student’s t-test. Source data are provided as a Source Data file.
(§2) Next, the capacity of DAP to correct UGA nonsense mutations in vivo was assessed in a mouse model. Four-week-old immunodeficient nude mice were injected with an identical number of Calu-6 cells carrying a UGA nonsense mutation in the TP53 gene, of HCC-GR6 cells having a wild-type TP53 gene or of p53-null 4T1 cells. […] The slower growth of Calu-6-cell-derived tumors in DAP-treated mice is thus likely due to rescue of p53 protein synthesis in these tumors, as expected on the basis of our cell culture experiments and as observed after western-blotting applied to protein extracts of tumors from DAP-treated mice (Supplementary Fig. 8B). Because of the small size of the Calu-6 tumors in DAP-treated mice and thus the high probability of collecting mouse cells upon tumor excision, quantitation of p53 was done in another experiment.
(§3) To initiate tumor growth, 6-week-old nude mice received subcutaneously 10 million cells suspended in PBS. […] Tumors were measured three times weekly for 5 weeks to determine the tumor volume by the following formula: l (mm) × L (mm) × L (mm). The tumors were then collected and a fraction was used for western blot analysis after protein extraction. All in vivo experiments complied with all relevant ethical regulations for animal testing and research and were authorized by the Ethic Committee 075 under the number 12971-2018010815336092.

[3] = test system: Calu-6 cell tumors in nude mice; assay: In vivo established Calu-6 tumors: tumor size and p53 western blot; parameters: species or system mouse
Protocol: as §1, §2, §3

Nc1nc(N)c2[nH]cnc2n1 [DAP, 2,6-diaminopurine]
Synthesis of p53 protein (western blot) [1]: not in Caco-2 cells | tumor size, Average ([2]; Calu-6, day 4, average of 7 mice): 0.07457 | tumor size, Average ([2]; Calu-6, day 6, average of 7 mice): 0.06657 | tumor size, Average ([2]; Calu-6, day 9, average of 7 mice): 0.067 | tumor size, Average ([2]; Calu-6, day 11, average of 7 mice): 0.05029 | tumor size, Average ([2]; Calu-6, day 13, average of 7 mice): 0.039 | tumor size, Average ([2]; Calu-6, day 16, average of 7 mice): 0.037 | tumor size, Average ([2]; Calu-6, day 18, average of 7 mice): 0.03471 | tumor size, Average ([2]; Calu-6, day 20, average of 7 mice): 0.06171 | tumor size, Average ([2]; Calu-6, day 23, average of 7 mice): 0.07814 | tumor size, Average ([2]; Calu-6, day 25, average of 7 mice): 0.06286 | tumor size, Average ([2]; Calu-6, day 27, average of 7 mice): 0.07829 | tumor size, Average ([2]; Calu-6, day 30, average of 7 mice): 0.09486 | tumor size, Average ([2]; Calu-6, day 32, average of 7 mice): 0.1364 | tumor size, Average ([2]; Calu-6, day 34, average of 7 mice): 0.1461 | tumor size, Average ([2]; Calu-6, day 37, average of 7 mice): 0.1584 | tumor size, Average ([2]; Calu-6, day 39, average of 7 mice): 0.2454 | tumor size, Average ([2]; Calu-6, day 41, average of 7 mice): 0.2229 | Tumor growth vs DMSO, in words ([2]; Calu-6, nude mice, force-fed daily, 5 weeks): strongly impaired tumor growth | Toxicity in a mouse model ([2]; mouse, in vivo, po): no detectable toxicity | Tumor size, average of 7 mice ([3]; measure 1 of 10 (time not given), DAP started when tumors about 0.4 cm^3): 0.002 cm^3 | Tumor size, average of 7 mice ([3]; measure 2 of 10 (time not given)): 0.02357 cm^3 | Tumor size, average of 7 mice ([3]; measure 3 of 10 (time not given)): 0.05086 cm^3 | Tumor size, average of 7 mice ([3]; measure 4 of 10 (time not given)): 0.07071 cm^3 | Tumor size, average of 7 mice ([3]; measure 5 of 10 (time not given)): 0.1153 cm^3 | Tumor size, average of 7 mice ([3]; measure 6 of 10 (time not given)): 0.1741 cm^3 | Tumor size, average of 7 mice ([3]; measure 7 of 10 (time not given)): 0.2344 cm^3 | Tumor size, average of 7 mice ([3]; measure 8 of 10 (time not given)): 0.3563 cm^3 | Tumor size, average of 7 mice ([3]; measure 9 of 10 (time not given)): 0.4617 cm^3 | Tumor size, average of 7 mice ([3]; measure 10 of 10 (time not given)): 0.5429 cm^3
